Measurements: PubChem BioAssay (NCI)
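Compound exposure: 48 hours, 5 concentrations, 96-well plates. GI50 marks 50% less growth. At the TGI there is no net growth.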

Experiments:
Assay in all cases: inhibition of tumour cell growth, NCI panel, 48 h
786-0 renal = tested on: 786-0 renal
A498 renal = tested on: A498 renal
A549 NSCLC = tested on: A549 NSCLC
ACHN renal = tested on: ACHN renal
BT-549 breast = tested on: BT-549 breast
CAKI-1 renal = tested on: CAKI-1 renal
CCRF-CEM leukemia = tested on: CCRF-CEM leukemia
COLO 205 colon = tested on: COLO 205 colon
DU-145 prostate = tested on: DU-145 prostate
EKVX NSCLC = tested on: EKVX NSCLC
HCC-2998 colon = tested on: HCC-2998 colon
HCT-116 colon = tested on: HCT-116 colon
HCT-15 colon = tested on: HCT-15 colon
HL-60(TB) leukemia = tested on: HL-60(TB) leukemia
HOP-62 NSCLC = tested on: HOP-62 NSCLC
HOP-92 NSCLC = tested on: HOP-92 NSCLC
HS 578T breast = tested on: HS 578T breast
HT29 colon = tested on: HT29 colon
IGROV1 ovarian = tested on: IGROV1 ovarian
K-562 leukemia = tested on: K-562 leukemia
KM12 colon = tested on: KM12 colon
LOX IMVI melanoma = tested on: LOX IMVI melanoma
M14 melanoma = tested on: M14 melanoma
MALME-3M melanoma = tested on: MALME-3M melanoma
MCF7 breast = tested on: MCF7 breast
MDA-MB-231 breast = tested on: MDA-MB-231 breast
MDA-MB-435 = tested on: MDA-MB-435
MOLT-4 leukemia = tested on: MOLT-4 leukemia
NCI-H226 lung = tested on: NCI-H226 lung
NCI-H23 lung = tested on: NCI-H23 lung
NCI-H460 lung = tested on: NCI-H460 lung
NCI-H522 lung = tested on: NCI-H522 lung
NCI/ADR-RES ovarian = tested on: NCI/ADR-RES ovarian
OVCAR-3 ovarian = tested on: OVCAR-3 ovarian
OVCAR-4 ovarian = tested on: OVCAR-4 ovarian
OVCAR-5 ovarian = tested on: OVCAR-5 ovarian
OVCAR-8 ovarian = tested on: OVCAR-8 ovarian
PC-3 prostate = tested on: PC-3 prostate
RPMI-8226 leukemia = tested on: RPMI-8226 leukemia
RXF 393 renal = tested on: RXF 393 renal
SF-268 CNS = tested on: SF-268 CNS
SF-295 CNS = tested on: SF-295 CNS
SF-539 CNS = tested on: SF-539 CNS
SK-MEL-2 melanoma = tested on: SK-MEL-2 melanoma
SK-MEL-28 melanoma = tested on: SK-MEL-28 melanoma
SK-MEL-5 melanoma = tested on: SK-MEL-5 melanoma
SK-OV-3 ovarian = tested on: SK-OV-3 ovarian
SN12C renal = tested on: SN12C renal
SNB-19 CNS = tested on: SNB-19 CNS
SNB-75 CNS = tested on: SNB-75 CNS
SR leukemia = tested on: SR leukemia
SW-620 colon = tested on: SW-620 colon
T-47D breast = tested on: T-47D breast
TK-10 renal = tested on: TK-10 renal
U251 CNS = tested on: U251 CNS
UACC-257 melanoma = tested on: UACC-257 melanoma
UACC-62 melanoma = tested on: UACC-62 melanoma
UO-31 renal = tested on: UO-31 renal

CCSC[C@@H]1C[C@](O)(c2ccc(F)cc2)[C@@H](c2ccc(F)cc2)O1
GI50 (786-0 renal): 16.4 µM
TGI (786-0 renal): 31.1 µM
GI50 (A498 renal): 19 µM
TGI (A498 renal): 33.1 µM
GI50 (A549 NSCLC): 18.7 µM
TGI (A549 NSCLC): 44 µM
GI50 (ACHN renal): 18.4 µM
TGI (ACHN renal): 32.6 µM
GI50 (BT-549 breast): 16.8 µM
TGI (BT-549 breast): 30.9 µM
GI50 (CAKI-1 renal): 18.2 µM
TGI (CAKI-1 renal): 39.7 µM
GI50 (CCRF-CEM leukemia): 12.5 µM
TGI (CCRF-CEM leukemia): 30.2 µM
GI50 (COLO 205 colon): 16.5 µM
TGI (COLO 205 colon): 31.6 µM
GI50 (DU-145 prostate): 15.1 µM
TGI (DU-145 prostate): 28.4 µM
GI50 (EKVX NSCLC): 15.3 µM
TGI (EKVX NSCLC): 31.7 µM
GI50 (HCC-2998 colon): 18.8 µM
TGI (HCC-2998 colon): 36.6 µM
GI50 (HCT-116 colon): 12.1 µM
TGI (HCT-116 colon): 29.2 µM
GI50 (HCT-15 colon): 17.4 µM
TGI (HCT-15 colon): 33 µM
GI50 (HL-60(TB) leukemia): 7 µM
TGI (HL-60(TB) leukemia): 21.2 µM
GI50 (HOP-62 NSCLC): 18.2 µM
TGI (HOP-62 NSCLC): 33.4 µM
GI50 (HOP-92 NSCLC): 15.2 µM
TGI (HOP-92 NSCLC): 28.6 µM
GI50 (HS 578T breast): 18 µM
TGI (HS 578T breast): 37 µM
GI50 (HT29 colon): 14.1 µM
TGI (HT29 colon): 27.7 µM
GI50 (IGROV1 ovarian): 14.5 µM
TGI (IGROV1 ovarian): 32.8 µM
GI50 (K-562 leukemia): 16 µM
TGI (K-562 leukemia): 31.5 µM
GI50 (KM12 colon): 19.4 µM
TGI (KM12 colon): 41.3 µM
GI50 (LOX IMVI melanoma): 17.3 µM
TGI (LOX IMVI melanoma): 32.2 µM
GI50 (M14 melanoma): 15.8 µM
TGI (M14 melanoma): 32.4 µM
GI50 (MALME-3M melanoma): 19.9 µM
TGI (MALME-3M melanoma): 37.3 µM
GI50 (MCF7 breast): 17.1 µM
TGI (MCF7 breast): 34.8 µM
GI50 (MDA-MB-231 breast): 15.3 µM
TGI (MDA-MB-231 breast): 30.1 µM
GI50 (MDA-MB-435): 17.7 µM
TGI (MDA-MB-435): 37.8 µM
GI50 (MOLT-4 leukemia): 3.21 µM
TGI (MOLT-4 leukemia): 11.1 µM
GI50 (NCI-H226 lung): 17.8 µM
TGI (NCI-H226 lung): 38.8 µM
GI50 (NCI-H23 lung): 19.1 µM
TGI (NCI-H23 lung): 46.6 µM
GI50 (NCI-H460 lung): 14.8 µM
TGI (NCI-H460 lung): 30.2 µM
GI50 (NCI-H522 lung): 18.4 µM
TGI (NCI-H522 lung): 49.3 µM
GI50 (NCI/ADR-RES ovarian): 21.3 µM
TGI (NCI/ADR-RES ovarian): 51 µM
GI50 (OVCAR-3 ovarian): 19.2 µM
TGI (OVCAR-3 ovarian): 37.1 µM
GI50 (OVCAR-4 ovarian): 16.3 µM
TGI (OVCAR-4 ovarian): 32.5 µM
GI50 (OVCAR-5 ovarian): 20.2 µM
TGI (OVCAR-5 ovarian): 37.9 µM
GI50 (OVCAR-8 ovarian): 23.6 µM
TGI (OVCAR-8 ovarian): > 64.6 µM
GI50 (PC-3 prostate): 15.8 µM
TGI (PC-3 prostate): 30 µM
GI50 (RPMI-8226 leukemia): 14.9 µM
TGI (RPMI-8226 leukemia): 36.1 µM
GI50 (RXF 393 renal): 20.2 µM
TGI (RXF 393 renal): 45.7 µM
GI50 (SF-268 CNS): 14.7 µM
TGI (SF-268 CNS): 29.6 µM
GI50 (SF-295 CNS): 15.3 µM
TGI (SF-295 CNS): 31.6 µM
GI50 (SF-539 CNS): 17 µM
TGI (SF-539 CNS): 31.1 µM
GI50 (SK-MEL-2 melanoma): 19.8 µM
TGI (SK-MEL-2 melanoma): 42 µM
GI50 (SK-MEL-28 melanoma): 18.3 µM
TGI (SK-MEL-28 melanoma): 33.3 µM
GI50 (SK-MEL-5 melanoma): 14.8 µM
TGI (SK-MEL-5 melanoma): 28 µM
GI50 (SK-OV-3 ovarian): 18.3 µM
TGI (SK-OV-3 ovarian): 38 µM
GI50 (SN12C renal): 17.9 µM
TGI (SN12C renal): 33.3 µM
GI50 (SNB-19 CNS): 16.6 µM
TGI (SNB-19 CNS): 31.1 µM
GI50 (SNB-75 CNS): 16.3 µM
TGI (SNB-75 CNS): 31.1 µM
GI50 (SR leukemia): 12.9 µM
TGI (SR leukemia): 30 µM
GI50 (SW-620 colon): 16.7 µM
TGI (SW-620 colon): 31.4 µM
GI50 (T-47D breast): 15 µM
TGI (T-47D breast): 35.8 µM
GI50 (TK-10 renal): 19.2 µM
TGI (TK-10 renal): 34.5 µM
GI50 (U251 CNS): 17.8 µM
TGI (U251 CNS): 31.7 µM
GI50 (UACC-257 melanoma): 16.1 µM
TGI (UACC-257 melanoma): 32.7 µM
GI50 (UACC-62 melanoma): 13.4 µM
TGI (UACC-62 melanoma): 27.4 µM
GI50 (UO-31 renal): 17 µM
TGI (UO-31 renal): 32.9 µM
